Results as given in US20070207946A1, “Dipeptidyl peptidase IV inhibitors and their uses for lowering blood pressure levels” (priority 2001, published 2007).
Read-outs that look alike come from different tables or passages of the source. Square brackets hold non-standard residues; d marks the D form. Peptide text beside a SMILES is read from it. * marks the point of attachment. pY = N[C@@H](Cc1ccc(OP(=O)(O)O)cc1)C(=O)O; aIle = CC[C@@H](C)[C@H](N)C(=O)O; Aoc(2) = CCCCCC[C@H](N)C(=O)O; Tle = CC(C)(C)[C@H](N)C(=O)O; Orn = NCCC[C@H](N)C(=O)O; Aze = O=C(O)[C@@H]1CCN1; Nva = CCC[C@H](N)C(=O)O; Abu = CC[C@H](N)C(=O)O; Bn = c1ccc(C*)cc1

Columns and labels:
[1] = target: T1, dipeptidyl peptidase IV from porcine kidney (Sus scrofa, UniProt P22411); test: Ki determination of DPIV inhibition; format: biochemical; details: substrate glycylprolyl-4-nitroaniline, HEPES pH7.6, 30° C.
T1 construct: dipeptidyl peptidase IV from porcine kidney; from tissue; host or cells: porcine kidney

purified porcine DPIV = purified porcine DPIV (Sus scrofa, UniProt P22411); test: Determination of IC50 values (DPIV, Gly-Pro-pNA); format: biochemical; details: Gly-Pro-pNA 0.4 mM, HEPES pH7.6, 30° C.
Procedure: 100 μl inhibitor stock solution were mixed with 100 μl buffer (HEPES pH7.6) and 50 μl substrate (Gly-Pro-pNA, final concentration 0.4 mM) and preincubated at 30° C. Reaction was started by addition of 20 μl purified porcine DPIV. Formation of the product pNA was measured at 405 nm over 10 min using the HTS 7000Plus plate reader (Perkin Elmer) and slopes were calculated. The final inhibitor concentrations ranged between 1 mM and 30 nM. For calculation of IC50 GraFit 4.0.13 (Erithacus Software) was used.

plasma DPIV activity = target: T2, plasma DPIV activity (Rattus norvegicus, UniProt P14740); test: DPIV inhibiting activity after intravasal and oral administration to Wistar rats; format: in vivo; details: for in vivo DPIV-inhibition at tmax, i.v. / in vivo DPIV-inhibition at tmax, p.o.: dose 100 mg/kg; for inhibition at 100 mg/kg: rat
T2 construct: from tissue; host or cells: plasma of Wistar rats
Procedure: Male Wistar rats (Shoe: Wist(Sho)) with a body weight ranging between 250 and 350 g were purchased from Tierzucht Schönwalde (Schönwalde, Germany).
Animals were single-caged under conventional conditions with controlled temperature (22±2° C.) on a 12/12 hours light/dark cycle (light on at 06:00 AM). Standard pelleted chow (ssniff® Soest, Germany) and tap water acidified with HCl were allowed ad libitum.
After ≧one week of adaptation at the housing conditions, catheters were implanted into the carotid artery of Wistar rats under general anaesthesia (i.p. injection of 0.25 ml/kg b.w. Rompun® [2%], BayerVital, Germany and 0.5 ml/kg b.w. Ketamin 10, Atarost GmbH & Co., Twistringen, Germany). The animals were allowed to recover for one week. The catheters were flushed with heparin-saline (100 IU/ml) three times per week. In case of catheter dysfunction, a second catheter was inserted into the contra-lateral carotid artery of the respective rat. After one week of recovery from surgery, this animal was reintegrated into the study. In case of dysfunction of the second catheter, the animal was withdrawn from the study. A new animal was recruited and the experiments were continued in the planned sequence, beginning at least 7 days after catheter implantation.
After overnight fasting, 100 μl samples of heparinised arterial blood were collected at −30, −5, and 0 min. […] In the case of oral administration, an additional volume of 1 ml saline was injected into the arterial catheter. In the case of infra-arterial administration, the catheter was immediately flushed with 30 μl saline and an additional 1 ml of saline was given orally via the feeding tube.
All blood samples were collected into ice cooled Eppendorf tubes (Eppendorf-Netheler-Hinz, Hamburg, Germany) filled with 10 μl 1M sodium citrate buffer (pH 3.0) for plasma DPIV activity measurement. Eppendorf tubes were centrifuged immediately (12000 rpm for 2 min, Hettich Zentrifuge EBA 12, Tuttlingen; Germany): The plasma fractions were stored on ice until analysis or were frozen at −20° C. until analysis. All plasma samples were labelled with the following data:
The assay mixture for determination of plasma DPIV activity consisted of 80 μl reagent and 20 μl plasma sample. […] The DPIV activity was expressed in mU/ml.
All parameters were analysed in a descriptive manner including mean and SD.

PepT1 [2] = target: T3, PepT1 (Oryctolagus cuniculus, UniProt P36836); test: Transport characteristics at PepT1-expressing oocytes of X. leavis, two-electrode voltage clamp; format: cell-based
T3 sequence (P36836 1-707): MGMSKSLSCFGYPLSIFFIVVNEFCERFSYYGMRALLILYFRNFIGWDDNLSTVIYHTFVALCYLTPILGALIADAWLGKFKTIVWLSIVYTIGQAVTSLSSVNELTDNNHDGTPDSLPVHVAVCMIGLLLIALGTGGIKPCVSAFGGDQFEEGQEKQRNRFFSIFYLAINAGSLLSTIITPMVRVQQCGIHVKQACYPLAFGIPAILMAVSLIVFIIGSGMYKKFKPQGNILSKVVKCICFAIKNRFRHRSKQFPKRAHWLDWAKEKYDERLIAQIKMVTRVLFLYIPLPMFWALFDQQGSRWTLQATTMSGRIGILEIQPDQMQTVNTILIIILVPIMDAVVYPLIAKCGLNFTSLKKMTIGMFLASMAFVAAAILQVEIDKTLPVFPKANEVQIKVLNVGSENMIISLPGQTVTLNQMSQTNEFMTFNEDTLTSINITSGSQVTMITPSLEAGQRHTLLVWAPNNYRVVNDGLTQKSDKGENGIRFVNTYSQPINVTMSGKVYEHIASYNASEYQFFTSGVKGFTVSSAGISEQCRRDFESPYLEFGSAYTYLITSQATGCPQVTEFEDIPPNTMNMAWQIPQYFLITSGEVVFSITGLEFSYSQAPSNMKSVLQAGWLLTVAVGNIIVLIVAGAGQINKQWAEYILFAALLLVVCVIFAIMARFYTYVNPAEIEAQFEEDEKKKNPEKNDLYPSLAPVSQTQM
Source text: (§1) Side chain-modified glutamyl thiazolidines having a structure H-Glu(X)-Thia were synthesised, with polyethylene glycol or glycine oligomers of various chain lengths being used as X (see Method A of example for description of synthesis). The binding characteristics of those derivatives and their transportability by the peptide transporter PepT1 were investigated.

PepT1 [3] = target: T3, PepT1; test: Inhibition of binding of 3H-D-Phe-Ala to PepT1-expressing P. pastoris cells; details: read-out: EC50: concentration inhibiting the binding of 3H-D-Phe-Ala to PepT1-expressing P. pastoris cells by 50%
Source text: as §1

F344 rats = test: Chronic intragastric infusion via osmotic minipumps over two weeks - blood pressure; format: in vivo, rat
Procedure: Reduced expression of the ectopeptidase DPIV and lack of DPIV-like activity in mutant F344 rats lacking DPIV enzymic activity and expression results in a lowered blood pressure. Mutant F344 substrains lacking DPIV enzymic activity and wild-type-like F344 were tested.

[4] = intra-vasal (intra-arterial) route

Sequence of purified porcine DPIV (P22411 whole entry): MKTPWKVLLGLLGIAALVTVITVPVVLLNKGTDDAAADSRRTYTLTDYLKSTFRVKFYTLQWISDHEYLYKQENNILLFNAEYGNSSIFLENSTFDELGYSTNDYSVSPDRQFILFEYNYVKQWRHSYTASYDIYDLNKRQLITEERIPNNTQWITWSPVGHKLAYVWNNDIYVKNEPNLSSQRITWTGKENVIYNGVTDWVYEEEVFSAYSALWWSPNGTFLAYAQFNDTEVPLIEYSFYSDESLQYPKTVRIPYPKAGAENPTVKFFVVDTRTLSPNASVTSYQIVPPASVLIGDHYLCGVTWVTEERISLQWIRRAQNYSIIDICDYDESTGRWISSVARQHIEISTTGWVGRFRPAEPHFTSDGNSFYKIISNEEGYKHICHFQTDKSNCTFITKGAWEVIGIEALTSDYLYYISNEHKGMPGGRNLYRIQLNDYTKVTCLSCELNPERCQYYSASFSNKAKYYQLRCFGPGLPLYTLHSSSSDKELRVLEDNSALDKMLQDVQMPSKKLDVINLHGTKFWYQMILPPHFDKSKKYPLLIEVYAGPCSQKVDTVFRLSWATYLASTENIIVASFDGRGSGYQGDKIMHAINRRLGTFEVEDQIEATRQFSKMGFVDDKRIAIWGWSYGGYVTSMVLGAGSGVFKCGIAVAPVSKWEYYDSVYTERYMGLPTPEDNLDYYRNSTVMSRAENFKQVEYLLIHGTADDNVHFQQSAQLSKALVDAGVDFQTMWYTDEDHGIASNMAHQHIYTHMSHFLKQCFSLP
T1 sequence (P22411 whole entry): as above
T2 sequence (P14740 38-767 limits assumed): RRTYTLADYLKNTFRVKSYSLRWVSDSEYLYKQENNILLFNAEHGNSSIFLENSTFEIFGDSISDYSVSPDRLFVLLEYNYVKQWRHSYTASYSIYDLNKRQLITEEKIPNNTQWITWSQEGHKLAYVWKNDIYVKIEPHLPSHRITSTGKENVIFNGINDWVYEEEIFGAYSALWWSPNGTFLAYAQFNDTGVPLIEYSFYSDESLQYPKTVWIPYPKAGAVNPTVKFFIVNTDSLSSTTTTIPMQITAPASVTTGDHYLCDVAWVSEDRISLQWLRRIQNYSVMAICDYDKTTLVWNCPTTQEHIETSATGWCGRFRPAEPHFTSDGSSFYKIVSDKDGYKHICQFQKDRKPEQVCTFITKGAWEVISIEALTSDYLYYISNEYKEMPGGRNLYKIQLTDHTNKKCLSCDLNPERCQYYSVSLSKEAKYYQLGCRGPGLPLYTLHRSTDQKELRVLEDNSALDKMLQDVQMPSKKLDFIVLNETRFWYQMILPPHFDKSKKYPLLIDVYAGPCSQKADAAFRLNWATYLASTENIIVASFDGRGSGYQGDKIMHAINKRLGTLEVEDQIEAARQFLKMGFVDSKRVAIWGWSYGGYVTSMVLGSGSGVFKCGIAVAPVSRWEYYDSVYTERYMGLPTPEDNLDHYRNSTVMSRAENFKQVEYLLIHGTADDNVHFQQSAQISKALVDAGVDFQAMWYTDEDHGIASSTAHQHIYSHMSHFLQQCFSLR

| Compound | Ki [1] [µM] | IC50 (purified porcine DPIV) [µM] | also measured |
| --- | --- | --- | --- |
| CCCCCC[C@H](N)C(=O)N1CCC[C@H]1C(=O)N[C@H](C(=O)O)[C@@H](C)CC [AOA-Pro-Ile, 2-Amino octanoic acid-Pro-Ile] (H-[Aoc(2)]-Pro-Ile-OH) | 12.6 | – | – |
| CC[C@H](N)C(=O)N1CCC[C@H]1C(=O)N[C@H](C(=O)O)[C@@H](C)CC [Abu-Pro-Ile] (H-[Abu]-Pro-Ile-OH; N-terminus and C-terminus assumed) | – | 34.3 | – |
| Br.CC(=O)OCC(=O)[C@@H]1CCCN1C(=O)[C@@H](NC(=O)[C@H](C)N)C(C)C [Ala-Val-Pro-acyloxy methyl ketone, H-Ala-Val-Pro-CH2O—C(O)CH3*HBr] | – | – | in vivo DPIV-inhibition at tmax, i.v. (plasma DPIV activity; [4]): 89%; in vivo DPIV-inhibition at tmax, p.o. (plasma DPIV activity; oral): 86% |
| Br.CC(C)[C@H](NC(=O)[C@H](C)N)C(=O)N1CCC[C@H]1C(=O)COC(=O)c1ccccc1 [Ala-Val-Pro-benzoyl-methyl ketone, H-Ala-Val-Pro-CH2O—C(O)Ph*HBr] | – | – | in vivo DPIV-inhibition at tmax, i.v. (plasma DPIV activity; [4]): 97%; in vivo DPIV-inhibition at tmax, p.o. (plasma DPIV activity; oral): 76% |
| CC[C@H](C)[C@H](NC(=O)[C@@H]1CCCN1C(=O)[C@@H]1CCN1)C(=O)O [Aze-Pro-Ile] (H-[Aze]-Pro-Ile-OH; N-terminus and C-terminus assumed) | – | 72.8 | – |
| NC(CC(=O)O)C(=O)N1CCCC1 (stereo not drawn) [H-Asp-pyrrolidine] | 14 | – | – |
| N[C@@H](CCC(=O)NO)C(=O)N1CCSC1 [H-Glu(NHOH)-thiazolidine] | 1.7 | – | Imax, inward currents generated by the transport (PepT1 [2]): 42 ± 11 nA; EC50 (PepT1 [3]): 3180 µM |
| N[C@@H](CCC(=O)O)C(=O)N1CCSC1 [H-Glu-thiazolidine] | – | – | Imax, inward currents generated by the transport (PepT1 [2]): 35 ± 13 nA |
| NC(Cc1c[nH]cn1)C(=O)N1CCCC1 (stereo not drawn) [H-His-pyrrolidine] | 35 | – | – |
| CCC(C)C(N)C(=O)N1CC1 (stereo not drawn) [H-Ile-azididine] | 3.1 | – | – |
| CC[C@@H](C)[C@H](NC(=O)[C@@H]1CCCN1C(=O)[C@@H](N)[C@@H](C)CC)C(=O)O [Ile-Pro-allo-Ile] | 5.22 | – | – |
| CC[C@H](C)[C@H](N)C(=O)N1CCC[C@H]1C(=O)N[C@H](C(=O)O)C(C)(C)C [Ile-Pro-t-butyl-Gly] (H-Ile-Pro-[Tle]-OH; N-terminus and C-terminus assumed) | 18.9 | 82.3 | – |
| CCC(C)C(N)C(=O)C1CCCCC1 (stereo not drawn) [Ile-cyclohexyl ketone] | 56.8 | 293 | – |
| CCC(C)C(N)C(=O)C1CCCC1 (stereo not drawn) [Ile-cyclopentyl ketone, 1-cyclopentyl-3-methyl-1-oxo-2-pentanaminium chloride] | – | – | inhibition at 100 mg/kg (plasma DPIV activity; iv, intra-vasal (intra-arterial) route, read-out: in vivo DPIV-inhibition at tmax, i.v.): 34%; inhibition at 100 mg/kg (plasma DPIV activity; oral, read-out: in vivo DPIV-inhibition at tmax, p.o.): 15% |
| CCC[C@H](N)C(=O)N1CCC[C@H]1C(=O)N[C@H](C(=O)O)[C@@H](C)CC [Nva-Pro-Ile] (H-[Nva]-Pro-Ile-OH; N-terminus and C-terminus assumed) | 6.17 | 24.9 | – |
| CC[C@H](C)[C@H](NC(=O)[C@@H]1CCCN1C(=O)[C@@H](N)CCCN)C(=O)O [Orn-Pro-Ile] (H-[Orn]-Pro-Ile-OH; N-terminus and C-terminus assumed) | – | 216 | – |

| Compound | Ki [1] [µM] | IC50 (purified porcine DPIV) [µM] | also measured |
| --- | --- | --- | --- |
| CC[C@H](C)[C@H](NC(=O)[C@@H]1CCCN1C(=O)[C@@H](N)COCc1ccccc1)C(=O)O [Ser(Bzl)-Pro-Ile] (H-Ser(Bn)-Pro-Ile-OH; N-terminus and C-terminus assumed) | 21.6 | 67.8 | – |
| CC[C@H](C)[C@H](NC(=O)[C@@H]1CCCN1C(=O)[C@@H](N)Cc1ccc(OP(=O)(O)O)cc1)C(=O)O [Tyr(P)-Pro-Ile] (H-[pY]-Pro-Ile-OH; N-terminus and C-terminus assumed) | – | – | in vivo DPIV-inhibition at tmax, p.o. (plasma DPIV activity; oral): no inhibition |
| CC[C@@H](C)[C@H](NC(=O)[C@@H]1CCCN1C(=O)[C@@H](N)Cc1ccc(O)cc1)C(=O)O [Tyr-Pro-allo-Ile] (H-Tyr-Pro-[aIle]-OH; N-terminus and C-terminus assumed) | 18.2 | 64.1 | – |
| CC[C@@H](C)[C@H](NC(=O)[C@@H]1CCCN1C(=O)[C@@H](N)C(C)C)C(=O)O [Val-Pro-allo-Ile] | 9.54 | – | – |
| CC(=O)C1CCCN1C(=O)C(N)C(C)C (stereo not drawn) [Val-Pro-methyl ketone] | 0.0476 | 0.579 | – |
| CC(C)C(N)C(=O)C1CCCC1 (stereo not drawn) [Val-cyclopentyl ketone] | 13.1 | 49 | – |
| CC[C@H](C)[C@H](N)C(=O)N1CCCC1C#N.O=C(O)C(F)(F)F (stereo partly drawn) [isoleucyl cyano pyrrolidine TFA] | – | – | blood pressure (F344 rats): dose-dependently reduced |
| CC(C)[C@@H](NC(=O)[C@@H]1CCCN1C(=O)[C@@H](N)C(C)(C)C)C(=O)O [t-butyl-Gly-Pro-D-Val] (H-[Tle]-Pro-[dV]-OH; N-terminus and C-terminus assumed) | – | 112 | – |
| CC(C)[C@H](NC(=O)[C@@H]1CCCN1C(=O)[C@@H](N)C(C)(C)C)C(=O)O [t-butyl-Gly-Pro-Val] (H-[Tle]-Pro-Val-OH; N-terminus and C-terminus assumed) | 3.08 | – | – |
| CC(C)(C)C(N)C(=O)C1CCCCC1 (stereo not drawn) [t-butyl-Gly-cyclohexyl ketone] | 273 | 273 | – |
| H-Glu(PEG)-Thia | 3.11 | – | EC50 (PepT1 [3]): > 10000 µM |
| Val-Pro-acyloxy methyl ketone | 0.00105 | 0.0102 | – |
| Val-Pro-benzothiazol methyl ketone | 0.0373 | 0.138 | – |
| Val-Pro-benzoyl methyl ketone | 0.000536 | 0.0179 | – |
| Val-cyclohexyl ketone | – | 1000 | – |
